As a reminder, the AC50 is the concentration giving half of the maximal activity seen. What is called EC50 is the concentration needed to bring the measured effect to its halfway point. One may read the IC50 as the point on the concentration scale where inhibition reaches its midpoint. One may read the CC50 as the concentration giving 50% cytotoxicity.

Experimental findings from ChEMBL document CHEMBL1201862, “PubChem BioAssay data set” (2004) are described below.

Experiment [1] can be described thus: Luminescence Cell-Based Dose Retest to Confirm Inhibitors of Cancer Stem Cells. [Related pubchem assays (depositor defined):AID2717, AID2721]. The format is functional. The note with it: Homo sapiens.
Experiment [2] deals with Luciferin 4-monooxygenase (Photinus pyralis, UniProt P08659). As to the kind of experiment: firefly luciferase enzyme inhibitors, dose response, biochemical, luminescence (AID 1891).
Luciferin 4-monooxygenase, sequence (P08659 whole entry): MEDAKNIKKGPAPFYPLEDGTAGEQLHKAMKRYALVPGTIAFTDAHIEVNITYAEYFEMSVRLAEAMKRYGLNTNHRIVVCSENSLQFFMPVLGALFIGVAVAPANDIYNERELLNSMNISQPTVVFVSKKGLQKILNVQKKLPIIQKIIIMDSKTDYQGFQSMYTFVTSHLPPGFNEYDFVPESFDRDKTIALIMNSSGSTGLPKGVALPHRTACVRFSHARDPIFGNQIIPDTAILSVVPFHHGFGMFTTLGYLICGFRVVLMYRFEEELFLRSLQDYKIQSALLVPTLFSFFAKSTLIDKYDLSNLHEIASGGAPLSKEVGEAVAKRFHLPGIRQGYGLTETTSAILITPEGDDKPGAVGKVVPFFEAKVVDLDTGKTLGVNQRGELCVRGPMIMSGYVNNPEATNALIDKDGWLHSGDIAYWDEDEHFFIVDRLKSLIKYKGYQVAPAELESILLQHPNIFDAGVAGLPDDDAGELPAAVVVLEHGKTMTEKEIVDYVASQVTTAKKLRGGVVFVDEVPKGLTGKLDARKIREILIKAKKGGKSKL
A short description of experiment [3]: Luminescence Cell-Based Dose Confirmation HTS to Identify Inhibitors of Platelet Dense Granule Release. [Related pubchem assays: 1663 (Primary HTS), 1678 (Summary of Project)]. It is filed as functional.
For another experiment, the target named is Nonstructural protein 1 (Influenza A virus, UniProt Q194T2). The format is functional, Influenza A virus (A/California/07/2009(H1N1)).
Nonstructural protein 1, sequence (Q194T2 whole entry): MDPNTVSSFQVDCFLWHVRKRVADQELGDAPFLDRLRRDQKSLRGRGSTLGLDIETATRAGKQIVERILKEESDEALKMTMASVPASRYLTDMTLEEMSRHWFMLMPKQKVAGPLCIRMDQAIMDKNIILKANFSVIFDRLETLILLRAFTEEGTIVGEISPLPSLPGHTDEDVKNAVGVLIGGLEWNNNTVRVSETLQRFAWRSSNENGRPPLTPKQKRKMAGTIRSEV
Experiment [4] concerns the target T1, Replicative DNA helicase DnaB (Mycobacterium tuberculosis, UniProt P9WMR3).
T1 sequence (P9WMR3 whole entry): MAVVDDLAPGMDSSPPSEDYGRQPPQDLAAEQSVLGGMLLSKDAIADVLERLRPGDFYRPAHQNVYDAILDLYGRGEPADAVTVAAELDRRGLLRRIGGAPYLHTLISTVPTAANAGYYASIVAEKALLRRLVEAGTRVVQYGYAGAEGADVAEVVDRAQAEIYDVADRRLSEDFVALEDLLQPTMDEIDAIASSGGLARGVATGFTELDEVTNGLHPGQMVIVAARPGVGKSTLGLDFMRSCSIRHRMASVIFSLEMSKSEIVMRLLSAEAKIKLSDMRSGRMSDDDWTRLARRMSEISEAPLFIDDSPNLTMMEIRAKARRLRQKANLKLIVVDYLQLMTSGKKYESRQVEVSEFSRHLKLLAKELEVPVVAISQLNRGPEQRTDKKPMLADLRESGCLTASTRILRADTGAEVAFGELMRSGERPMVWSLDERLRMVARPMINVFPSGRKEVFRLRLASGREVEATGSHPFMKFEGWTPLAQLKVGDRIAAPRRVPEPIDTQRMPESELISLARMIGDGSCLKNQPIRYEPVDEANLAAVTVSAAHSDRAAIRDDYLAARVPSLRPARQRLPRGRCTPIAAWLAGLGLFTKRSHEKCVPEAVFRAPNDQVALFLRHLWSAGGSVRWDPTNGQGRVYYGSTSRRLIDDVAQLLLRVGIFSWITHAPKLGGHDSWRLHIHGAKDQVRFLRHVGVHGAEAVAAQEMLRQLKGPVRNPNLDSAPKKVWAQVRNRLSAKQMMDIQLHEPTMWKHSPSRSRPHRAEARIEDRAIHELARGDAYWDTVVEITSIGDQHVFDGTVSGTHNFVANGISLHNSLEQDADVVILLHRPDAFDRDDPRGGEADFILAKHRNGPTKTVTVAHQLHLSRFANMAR
As to the kind of experiment: DnaB intein splicing inhibitors, dose response, biochemical, cell-free fluorescence (AID 449749). The format is functional.

Another experiment has as its target T2, Protein RecA (Mycobacterium tuberculosis, UniProt P9WHJ3).
T2 sequence (P9WHJ3 whole entry): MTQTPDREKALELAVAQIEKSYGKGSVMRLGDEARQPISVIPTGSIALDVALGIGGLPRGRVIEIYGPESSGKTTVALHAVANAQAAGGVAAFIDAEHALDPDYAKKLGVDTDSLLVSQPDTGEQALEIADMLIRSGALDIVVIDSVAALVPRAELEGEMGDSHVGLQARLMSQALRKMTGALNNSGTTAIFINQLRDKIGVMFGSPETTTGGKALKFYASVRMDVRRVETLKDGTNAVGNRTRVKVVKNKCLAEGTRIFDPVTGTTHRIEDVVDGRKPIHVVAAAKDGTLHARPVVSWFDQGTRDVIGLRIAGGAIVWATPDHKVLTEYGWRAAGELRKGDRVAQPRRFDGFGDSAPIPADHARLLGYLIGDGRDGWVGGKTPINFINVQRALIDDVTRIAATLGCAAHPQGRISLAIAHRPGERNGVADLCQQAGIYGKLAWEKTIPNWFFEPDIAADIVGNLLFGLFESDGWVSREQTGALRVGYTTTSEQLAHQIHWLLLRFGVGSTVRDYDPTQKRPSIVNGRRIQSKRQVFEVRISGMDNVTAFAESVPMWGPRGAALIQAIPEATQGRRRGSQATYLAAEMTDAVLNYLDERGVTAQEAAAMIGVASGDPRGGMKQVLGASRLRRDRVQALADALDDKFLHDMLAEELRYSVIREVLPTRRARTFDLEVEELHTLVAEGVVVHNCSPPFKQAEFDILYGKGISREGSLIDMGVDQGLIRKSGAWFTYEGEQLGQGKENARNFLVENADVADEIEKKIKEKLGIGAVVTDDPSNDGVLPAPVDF
The experiment is described as follows: Fluorescence Cell-Free Homogeneous Dose Retest to Identify Inhibitors of RecA-Intein Splicing Activity. [Related pubchem assays (depositor defined):AID2097, AID2223, AID489010, AID492950]. The format is functional.

For experiment [5], the target named is T3, Rac GTPase-activating protein 1 (Homo sapiens, UniProt Q9H0H5).
T3 sequence (Q9H0H5 whole entry): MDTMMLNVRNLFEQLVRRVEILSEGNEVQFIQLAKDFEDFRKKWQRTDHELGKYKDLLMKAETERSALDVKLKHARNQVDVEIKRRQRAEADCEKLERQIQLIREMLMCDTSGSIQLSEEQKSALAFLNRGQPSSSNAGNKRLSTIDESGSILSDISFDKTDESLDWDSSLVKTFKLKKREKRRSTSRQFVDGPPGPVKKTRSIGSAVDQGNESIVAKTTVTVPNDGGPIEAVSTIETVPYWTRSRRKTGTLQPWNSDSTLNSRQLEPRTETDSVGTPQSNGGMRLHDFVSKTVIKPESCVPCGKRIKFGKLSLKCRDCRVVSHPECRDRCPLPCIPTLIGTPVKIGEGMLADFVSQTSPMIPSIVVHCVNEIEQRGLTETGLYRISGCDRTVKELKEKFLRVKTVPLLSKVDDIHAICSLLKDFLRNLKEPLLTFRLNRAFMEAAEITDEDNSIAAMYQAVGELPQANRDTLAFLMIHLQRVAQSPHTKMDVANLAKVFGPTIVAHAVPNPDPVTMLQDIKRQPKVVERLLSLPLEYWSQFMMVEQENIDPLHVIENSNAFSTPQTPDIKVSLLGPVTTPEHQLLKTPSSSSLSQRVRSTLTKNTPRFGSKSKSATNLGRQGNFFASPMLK
As to the kind of experiment: MgcRacGAP GTPase-activating activity inhibitors, confirmation, biochemical, ADP Hunter fluorescence, primary and confirmatory (AID 624330). It is filed as functional.

The test system of a further experiment is INS1. The experiment is described as follows: beta cell apoptosis inhibitors, cytokine rescue, dose response, luminescence, retest (AID 449756).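 Note: cell death triggered by IL-1 beta plus TNF-alpha plus IFN-gamma mixture; protective hits raise ATP signal compared with cytokine alone wells.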 The format is functional, cell-based. The note with it: Rattus norvegicus.
In a further experiment the test system is H4. The experiment is described as follows: Luminescence Cell-Based Dose Response HTS to Identify Activators of 5'UTR Stem-Loop Driven Prion Protein mRNA Translation in H4 Neuroglioblastoma Cells. [Related pubchem assays: 1829 (Project Summary), 1814 (Primary HTS)]. It is filed as functional. The note with it: Homo sapiens.
Experiment [6] is described as follows: HEp-2 cell cytotoxicity, dose response, cytotoxicity control for RSV inhibitor project, HTS (AID 2410). It is filed as functional. The note with it: human respiratory syncytial virus.
The nature of experiment [7]: cytotoxicity toward NIH3T3 fibroblasts, dose response, counter-screen, cell-based, ATP luminescence, mouse fibroblasts (AID 2010).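 Note: cells exposed to compound for about 90 hours before reading.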 It is filed as functional. (In general: The purpose of a counterscreen is to sort out artefacts and off-target activity.)
Experiment [8] is described as follows: inhibitors of intracellular T. cruzi replication, confirmation, NIH3T3 host cells, beta-gal luminescence (AID 2044).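 Note: intracellular parasites grown in NIH/3T3 mouse fibroblasts as host cells; luminescent beta-galactosidase reporter signal from transgenic T. cruzi replicating inside host cells; inhibitors lower the luminescence signal.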 The format is functional, cell-based.
Experiment [9] is described as follows: Luminescence Cell-Based Dose Response HTS to Identify Inhibitors of 5'UTR Stem-Loop Driven Prion Protein mRNA Translation in H4 Neuroglioblastoma Cells. [Related pubchem assays: 1827 (Project Summary), 1813 (Primary HTS)]. The format is functional.
A short description of experiment [10]: inhibitors of firefly luciferase expression or activity, dose response, H4 neuroglioma cells, luminescence (AID 1990). The format is functional, cell-based.
The nature of experiment [11]: inhibitors of SNCA 5'UTR-driven reporter translation, confirmation, H4 neuroglioma cells, luminescence (AID 1988). The format is functional, cell-based.
Experiment [12] can be described thus: P. falciparum Dd2 growth inhibitors, dose response, SYBR Green, cherry-picked samples (AID 1159567). It is filed as functional, cell-based.

SMILES strings stand for the structures. Calls of active or inactive are those of the source.

With `COc1ccc(-n2c(Cc3cccn3C)nnc2SCC(=O)Nc2cccc(Cl)c2)cc1`, the AC50 in experiment [1] was 125 µM (active).

Turning to `COc1ccc(NC(=O)c2ccc(OC(F)F)cc2)cc1Cl`, the concentration for a half-maximal effect (EC50) in experiment [2] was 3.3 µM (active); in experiment [3] it was 4.52 µM (active).

For `COc1ccc(C2=NN(c3ccccc3)C(=O)/C2=C\c2ccc(O)c(OC)c2)cc1`, the IC50 on Nonstructural protein 1 is 42.4 µM (active). In addition, the AC50 in experiment [4] is 2.29 µM (active). Moreover, at Protein RecA, the EC50 was 1.42 µM (active).

Take `CC(C(=O)N1CCCc2ccccc21)N1CCN(c2ccccn2)CC1` (configuration not stated): the IC50 in experiment [5] is 93.9 µM (active).

Take `C=CCN1C(=O)/C(=C/C=C2/N(CC)c3ccc(S(=O)(=O)N(C)C)cc3N2CC)SC1=S`: the IC50 at Nonstructural protein 1 is > 100 µM (active).

As for `CN1CC(=O)N(CC(=O)Nc2ccc(N(C)C)cc2)c2ccccc2C1=O`, the 50% inhibitory concentration (IC50) in [5] was 56.7 µM (active).

As for `CCOC(=O)c1[nH]nc(-c2c(O)cc(C)cc2O)c1-c1csc(C)n1`, the 50% effective concentration (EC50) in experiment [2] and in experiment [3] was > 112 µM (not active) each time.

In the case of `Cc1ccc(C(C)(C)C)cc1S(=O)(=O)N1CCC(C(=O)N2CCN(c3ccc(O)cc3)CC2)CC1`, in experiment [5], the half-inhibitory concentration (IC50) was 99.1 µM (active).

For the molecule `Cc1ccc2oc(-c3ccc(NC(=O)c4cccnc4)cc3)nc2c1`, the EC50 in experiment [2] and in [3] was > 112 µM (not active) in each case. For the same molecule, the AC50 with INS1 was 7.77 µM (active).

Take `Cc1occc1C(=O)Nc1cc(C(C)(C)C)on1`: the EC50 was 2.78 µM (active) in [2] and 3.46 µM (active) in [3].

With `CCn1c2ccccc2c2cc(NC(=O)c3cccc([N+](=O)[O-])c3)ccc21`, the AC50 in [1] was 1.62 µM (active).

In the case of `COc1ccc(NC2CCCN(C(=O)c3cc(C)nc4cc(F)ccc34)C2)cc1` (configuration not stated), the concentration for half-maximal inhibition (IC50) in experiment [5] is 120 µM (active).

`COc1ccc(-c2[nH]ncc2N=Nc2ccccc2)cc1`: the half-maximal activity concentration (AC50) in experiment [1] is 3.81 µM (active).

Consider `CCOC(=O)C1=C(C)NC(=O)NC1`, for which the EC50 is > 112 µM (not active) in [2] and 5.87 µM (active) in [3].

Take `O=C(N/C(=C\c1ccc(O)cc1)C(=O)N1CCCCC1)c1ccccc1`: the IC50 in [5] is 47.3 µM (active).

With `C=C1[C@@H](O)[C@@H]2O[C@]3(CC[C@H](/C=C/[C@@H](C)[C@@H]4CC(C)=CC5(O[C@H](C[C@@](C)(O)C(=O)OC)CC[C@H]5O)O4)O3)CC[C@H]2O[C@@H]1[C@@H](O)C[C@H](C)[C@H]1OC2(CCCCO2)CC[C@H]1C` (some centres not stated), the figures for the AC50 (in experiment [1]; with INS1) were < 0.16 µM (inconclusive) and < 0.195 µM (active), respectively.

As for `O=C(N/N=C/c1sc(=O)n(-c2ccccc2)c1Cl)c1ccccc1`, in the experiment on H4, the concentration for a half-maximal effect (EC50) is 34.9 µM (inconclusive).

For the molecule `COc1ccccc1/C=N/Nc1nccnc1Cl`, the EC50 in experiment [2] was 12.3 µM (active); in experiment [3], 5.37 µM (active).

For the molecule `Cc1ccnc(Nc2nc(-c3ccc(O)cc3O)cs2)c1`, in experiment [6], the CC50 was 25.8 µM (active). For the same molecule, the half-maximal activity concentration (AC50) in [1] was 12.3 µM (active).

With `Cc1cc(C(=O)N/N=C/c2cc(Br)cc(Br)c2OC(=O)c2cccc(F)c2)[nH]n1`, the EC50 in experiment [7] is > 60 µM (inconclusive); in experiment [8] it was 1.01 µM (active); in [9], 8.33 µM (active); in [10] it was 8.5 µM (active); in [11], 7.49 µM (active). Moreover, the figures for the AC50 (in experiment [1]; in the experiment on INS1) were 3.46 µM (active) and 2.33 µM (active), respectively.

In the case of `CCC(=O)Nc1ccc2c(c1)OC[C@H](C)N(Cc1ccccn1)C[C@H](C)[C@H](OC)CN(C)C2=O`, the AC50 in [12] was 15.3 µM (active).

On to `COc1cccc(-c2ccc3c(c2)[C@H]2[C@H](CCN2C(=O)C2CCCC2)[C@H](CO)N3)c1`, for which the half-maximal activity concentration (AC50) in [12] is 7.06 µM (active).

`COc1cccc(-c2ccc([C@H]3[C@H](CO)N4CCCCN(CC5CC5)C[C@@H]34)cc2)c1`: the concentration at half-maximal activity (AC50) in [12] was 5.84 µM (active).

Take `Cc1ccccc1-c1ccc([C@H]2[C@H]3CNC[C@@H]2N3S(=O)(=O)c2cccc(F)c2)cc1`: the AC50 in experiment [12] is 35.7 µM (active).

Regarding `CS(=O)(=O)N1[C@H](C#N)[C@H](c2ccccc2-c2ccccc2)[C@H]1CO`, the AC50 in experiment [12] is > 36 µM (inactive).
